Results as given in ChEMBL document CHEMBL5126665, “A Dimerosesquiterpene and Sesquiterpene Lactones from Artemisia argyi Inhibiting Oncogenic PI3K/AKT Signaling in Melanoma Cells” (J Nat Prod, 2022).
Active and inactive are the calls of the source. No cut-off for these calls is given here.

What was measured:
Format in all cases: cell-based
[1] = Inhibition of PI3K/AKT signalling pathway in human MM121224 cells stably expressing H2B-mTurquoise, ERK-KTR-mScarlet and FoxO3a-KTR-mNeonGreen fluorophore assessed as AKT activity by high-content screening microscopic analysis
MM121224 [2] = experiment: Inhibition of PI3K/AKT signalling pathway in human MM121224 cells stably expressing H2B-mTurquoise, ERK-KTR-mScarlet and FoxO3a-KTR-mNeonGreen fluorophore assessed as AKT activity at 25 uM by high-content screening microscopic analysis
[3] = Toxicity against human MM121224 cells at 50 to 200 uM by high-content screening microscopic analysis; settings: mm121224, 200 µM, dose 50-200 µM
MM121224 [4] = experiment: Inhibition of PI3K/AKT signalling pathway in human MM121224 cells assessed as downregulation of AKT phosphorylation at Ser473 residue by immunostaining based analysis

In the case of C=C1C(=O)O[C@@H]2[C@H]3C(C)=CC(=O)C3=C(C)C[C@H](OC(=O)C=C(C)C)[C@@H]12, the IC50 [1] is reported as 8.9 µM, the inhibition (MM121224 [2]) is reported as “Active” and the Activity [3] is reported as “Toxic”. For the same molecule, the inhibition (MM121224 [4]) was “Active”.
Work on C=C1C(=O)O[C@H]2[C@H]1[C@@H](OC(=O)CC(C)C)C=C(C)[C@]1(O)C[C@@H](O)[C@@](C)(O)[C@H]21 yielded an IC50 [1] of 27.9 µM.
With C=C1C(=O)O[C@H]([C@H]2C(=O)C=C[C@@]2(C)O)[C@H]1CCC(C)=O the IC50 [1] was 38 µM.
With C=C1C(=O)O[C@@H]2[C@H]3C(C)=CC(=O)C3=C(C)C[C@H](OC(=O)CC(C)C)[C@@H]12 the IC50 [1] was 15.3 µM.
In the case of C=C1C(=O)O[C@H]2[C@H]1[C@@H](OC(C)=O)CC(C)=C1C[C@H]3O[C@@]3(C)[C@@H]12, the IC50 [1] is reported as 25.9 µM.
Work on C=C1C(=O)O[C@@H]2[C@H]3C(C)=CC(=O)C3=C(C)C[C@H](OC(=O)C(C)CC)[C@@H]12 (stereo partly specified) yielded an IC50 [1] of 27.7 µM.
Work on C=C1C(=O)O[C@H]2[C@H]1CC[C@@](C)(O)[C@@]13O[C@@H]1[C@@H]1O[C@]1(C)[C@H]23 yielded an IC50 [1] of 38.4 µM.
For C=C1C(=O)O[C@H]([C@@H]2C(=O)C=C[C@]2(C)O)[C@H]1CCC(C)=O [SECOTANAPARTHOLIDE B], the IC50 [1] was 22.5 µM.
For C=C1C(=O)O[C@H]2[C@H]1[C@@H](OC(=O)CC(C)C)CC(=C)[C@]1(O)C[C@H]3O[C@@]3(C)[C@H]21, the IC50 [1] was 14.2 µM.
In the case of C=C1C(=O)O[C@@H]2[C@@H]3[C@@]4(C=C[C@@]3(C)[C@]3(C4)C(=O)O[C@@H]4[C@H]5C(C)=CC(=O)C5=C(C)C[C@H](OC(C)=O)[C@H]43)[C@](C)(O)CC[C@@H]12, the IC50 [1] is reported as 35.7 µM and the inhibition (MM121224 [4]) is reported as “Active”.
C=C1C(=O)O[C@@H]2[C@H]3C(C)=CC(=O)C3=C(C)CC[C@@H]12 [DEHYDROLEUCODIN] gave an IC50 [1] of 23.6 µM.
For C=C1C(=O)O[C@@H]2[C@H]3C(C)=CC(=O)C3=C(C)C[C@H](OC(=O)/C(C)=C\C)[C@@H]12, the IC50 [1] was 9.8 µM.
In the case of C=C1C(=O)O[C@H]2[C@H]1[C@@H](OC(=O)C(C)CC)CC(=C)[C@]1(O)C[C@H]3O[C@@]3(C)[C@H]21 (stereo partly specified), the IC50 [1] is reported as 14.2 µM.
With C=C1C(=O)O[C@H]2[C@H]1CC[C@@](C)(O)[C@]13C=C[C@@](C)([C@H]21)[C@@]1(C3)C(=O)C[C@]2(C(C)C)C[C@@H]21 the IC50 [1] was 26.5 µM.
With C=C1C(=O)O[C@@H]2C3=C(C)C(=O)C[C@@H](O)[C@]3(C)CC[C@@H]12 the IC50 [1] was 11.2 µM and the inhibition (MM121224 [4]) was “Active”.
In the case of C=C1C(=O)O[C@H](C2=C(C)[C@H](OC(C)=O)CC2=O)[C@H]1CCC(C)=O, the IC50 [1] is reported as 25.1 µM and the inhibition (MM121224 [4]) is reported as “Active”.
With C=C1C(=O)O[C@@H]2[C@H]3C(C)=CC(=O)C3=C(C)C[C@H](O)[C@@H]12 the IC50 [1] was 15.1 µM and the inhibition (MM121224 [4]) was “Active”.
In the case of C=C1C(=O)O[C@H]2[C@H]1[C@@H](OC(=O)C(C)CC)C=C(C)[C@]1(O)C[C@@H](O)[C@@](C)(O)[C@H]21 (stereo partly specified), the IC50 [1] is reported as 24.6 µM.
C=C1C(=O)O[C@H]2[C@H]1[C@@H](OC(C)=O)CC(=C)[C@]1(O)C[C@H]3O[C@@]3(C)[C@H]21 gave an IC50 [1] of 46.2 µM.
For C=C1C(=O)O[C@@H]2[C@H]3C(C)=CC(=O)C3=C(C)C[C@H](OC(C)=O)[C@@H]12, the IC50 [1] was 11 µM.
Molecule C=C1C(=O)O[C@@H]2[C@@H]3[C@@]4(C=C[C@@]3(C)[C@@]3(C4)C(=O)O[C@@H]4[C@H]5C(C)=CC(=O)C5=C(C)C[C@H](OC(C)=O)[C@H]43)[C@](C)(O)CC[C@@H]12 has an IC50 [1] of 14.7 µM.
With C=C(C(=O)OC)[C@@H]1CC[C@]2(C)C(=C(C)C(=O)C[C@H]2O)[C@H]1O the IC50 [1] was 22.1 µM and the inhibition (MM121224 [4]) was “Active”.
In the case of C=C1C(=O)O[C@H]2[C@H]1CC[C@@](C)(O)[C@@]13C=C[C@](C)([C@H]4[C@H](CC(=O)OC)[C@H](C/C=C\CC)C(=O)[C@H]41)[C@H]23, the IC50 [1] is reported as 27.7 µM and the inhibition (MM121224 [4]) is reported as “Active”.
C=C1C(=O)O[C@@H]2[C@H]3C(C)=CC[C@@H](O)[C@]3(C)CC[C@@H]12 [SANTAMARIN] showed an IC50 [1] of 52.7 µM.
In the case of C=C1C(=O)O[C@H]2[C@H]1[C@@H](OC(C)=O)C=C(C)[C@]1(O)C[C@H]3O[C@@]3(C)[C@H]21, the IC50 [1] is reported as 22.9 µM.
For C=C1C(=O)O[C@H]2[C@H]1[C@@H](OC(=O)CC(C)C)CC(C)=C1C[C@H]3O[C@@]3(C)[C@@H]12, the IC50 [1] was 16.9 µM.
In the case of C=C1C(=O)O[C@H]2[C@H]1CC[C@@](C)(O)[C@]13O[C@H]1[C@H]1O[C@@]1(C)[C@H]23 [ARTECANIN], the IC50 [1] is reported as 119 µM.
